Results as given in patent US11077090B2, “Compounds and compositions and uses thereof” (Sunovion Pharmaceuticals Inc., priority 2016, dated 2021).

Tested on: compound-treated mice
Assay: Neuropharmacological assay (SmartCube): behavioral activity signature and minimal effective dose
Type: in vivo
Settings: for minimal effective dose: Mus musculus, ip, MED = dose having 50% or more total activity, read-out: Potency: minimal effective dose (MED); for AD: ADHD (probability of activity signature) / AG: analgesic (probability of activity signature) / AX: anxiolytic (probability of activity signature) / CE: cognitive enhancer (probability of activity signature) / DP: anti-depressant (probability of activity signature) / MS: mood stabilizer (probability of activity signature) / PS: anti-psychotic (probability of activity signature) / SD: sedative hypnotic (probability of activity signature) / UN: uncharacterized CNS activity (probability of activity signature): i.p. 15 min before test, most efficacious dose(s)
Source text: Neurosci. 2011 Sep. 9; 5:103 (doi: 10.3389/fnins.2011.00103) (“Roberds”). As reported in Roberds, because psychiatric diseases generally result from disorders of cell-cell communication or circuitry, intact systems are useful in detecting improvement in disease-relevant endpoints. These endpoints are typically behavioral in nature, often requiring human observation and interpretation. To facilitate testing of multiple compounds for behavioral effects relevant to psychiatric disease, PsychoGenics, Inc. (Tarrytown, N.Y., “PGI”) developed SmartCube™, an automated system in which behaviors of compound-treated mice are captured by digital video and analyzed with computer algorithms. (D. Brunner et al., Drug Discov. Today 2002, 7:S107-S112). PGI Analytical Systems uses data from SmartCube™ to compare the behavioral signature of a test compound to a database of behavioral signatures obtained using a large set of diverse reference compounds. (The composition of the database as well as validation of the method is further described in Roberds). In this way, the neuropharmacological effects of a test compound can be predicted by similarity to major classes of compounds, such as antipsychotics, anxiolytics and antidepressants.
The SmartCube™ system produces an activity signature indicating the probability that the activity of the test compound at the administered dose matches a given class of neuropharmacological agents. (See, e.g., Roberds, FIGS. 2 and 3). The test compound is simultaneously compared against multiple classes of agents; thus, a separate probability is generated for each behavioral effect measured (e.g., anxiolytic activity, analgesic activity, etc.). In the table below, these probabilities are reported for each behavioral effect measured as follows:
where LOQ is the limit of quantification.
Provided compounds were dissolved in a mixture of Pharmasolve™ (N-methyl-2-pyrrolidone), polyethylene glycol and propylene glycol, and were injected i.p. 15 min. before the behavioral test. For each compound, injections were administered at 3 different doses. For each behavioral effect measured, results for the most efficacious dose(s) are presented. In the table below, DP: anti-depressant; AX: anxiolytic; SD: sedative hypnotic; PS: anti-psychotic; MS: mood stabilizer; AD: ADHD; CE: cognitive enhancer; AG: analgesic; UN: uncharacterized CNS activity.
The potency of many of the compounds in the table was also determined in the SmartCube™ system. Test compounds were routinely examined at dose levels of 0.3, 1, 3, 10 and 30 mg per kg (mpk), although the dose range was increased or decreased if necessary to obtain a full dose response curve. A compound's minimal effective dose (MED) is a measure of the compounds potency. The MED was defined as the dose (in mpk) having 50% or more total activity in SmartCube.

Row | SMILES | minimal effective dose [mg/kg] | AD: ADHD (probability of activity signature) | AG: analgesic (probability of activity signature) | AX: anxiolytic (probability of activity signature) | CE: cognitive enhancer (probability of activity signature) | DP: anti-depressant (probability of activity signature) | MS: mood stabilizer (probability of activity signature) | PS: anti-psychotic (probability of activity signature) | SD: sedative hypnotic (probability of activity signature) | UN: uncharacterized CNS activity (probability of activity signature)
1 | C[C@H]1OCc2ccc3ccccc3c2[C@@H]1N.Cl (single isomer, unassigned) [Example 90] | 10 to 30 | + (LOQ ≤ + <5%) | ++ (5% ≤ ++ <25%) | +++ (25% ≤ +++ <50%) | ++ (5% ≤ ++ <25%) | ++ (5% ≤ ++ <25%) | + (LOQ ≤ + <5%) | + (LOQ ≤ + <5%) | ++ (5% ≤ ++ <25%) | + (LOQ ≤ + <5%)
2 | C[C@@H]1OCc2ccc3ccccc3c2[C@@H]1N.Cl (single isomer, unassigned) [Example 91] | 10 to 30 | + (LOQ ≤ + <5%) | ++ (5% ≤ ++ <25%) | + (LOQ ≤ + <5%) | ++ (5% ≤ ++ <25%) | + (LOQ ≤ + <5%) | + (LOQ ≤ + <5%) | ++ (5% ≤ ++ <25%) | ++ (5% ≤ ++ <25%) | +++ (25% ≤ +++ <50%)
3 | N[C@H]1COCc2ccccc21 (single isomer, unassigned) [Example 112] | 10 to 30 | + (LOQ ≤ + <5%) | ++ (5% ≤ ++ <25%) | ++ (5% ≤ ++ <25%) | +++ (25% ≤ +++ <50%) | ++ (5% ≤ ++ <25%) | + (LOQ ≤ + <5%) | ++ (5% ≤ ++ <25%) | + (LOQ ≤ + <5%) | + (LOQ ≤ + <5%)
4 | N[C@@H]1COCc2ccc(F)cc21 (single isomer, unassigned) [Example 113] | 3 to 10 | + (LOQ ≤ + <5%) | ++ (5% ≤ ++ <25%) | ++ (5% ≤ ++ <25%) | ++ (5% ≤ ++ <25%) | ++ (5% ≤ ++ <25%) | + (LOQ ≤ + <5%) | ++ (5% ≤ ++ <25%) | + (LOQ ≤ + <5%) | +++ (25% ≤ +++ <50%)
5 | Cc1ccc2c(c1)[C@H](N)CCOC2 (single isomer, unassigned) [Example 115] | 3 to 10 | + (LOQ ≤ + <5%) | ++ (5% ≤ ++ <25%) | ++ (5% ≤ ++ <25%) | ++ (5% ≤ ++ <25%) | ++ (5% ≤ ++ <25%) | + (LOQ ≤ + <5%) | +++ (25% ≤ +++ <50%) | ++ (5% ≤ ++ <25%) | +++ (25% ≤ +++ <50%)
6 | Cc1ccc2c(c1)[C@@H](N)CCOC2 (single isomer, unassigned) [Example 116] | 3 to 10 | + (LOQ ≤ + <5%) | ++ (5% ≤ ++ <25%) | ++ (5% ≤ ++ <25%) | ++ (5% ≤ ++ <25%) | ++ (5% ≤ ++ <25%) | + (LOQ ≤ + <5%) | ++ (5% ≤ ++ <25%) | +++ (25% ≤ +++ <50%) | +++ (25% ≤ +++ <50%)
7 | N[C@@H]1COCc2ccc(Cl)c(Cl)c21 (single isomer, unassigned) [Example 119] | < 3 | + (LOQ ≤ + <5%) | ++ (5% ≤ ++ <25%) | +++ (25% ≤ +++ <50%) | ++ (5% ≤ ++ <25%) | ++ (5% ≤ ++ <25%) | + (LOQ ≤ + <5%) | ++ (5% ≤ ++ <25%) | ++ (5% ≤ ++ <25%) | ++++ (50% ≤ ++++)
8 | N[C@H]1COCc2ccc(Cl)c(Cl)c21 (single isomer, unassigned) [Example 120] | 3 to 10 | + (LOQ ≤ + <5%) | ++ (5% ≤ ++ <25%) | +++ (25% ≤ +++ <50%) | ++ (5% ≤ ++ <25%) | ++ (5% ≤ ++ <25%) | + (LOQ ≤ + <5%) | ++ (5% ≤ ++ <25%) | ++ (5% ≤ ++ <25%) | ++ (5% ≤ ++ <25%)
9 | COc1ccc2c(c1)[C@H](N)COC2 (single isomer, unassigned) [Example 121] | < 3 | + (LOQ ≤ + <5%) | ++ (5% ≤ ++ <25%) | ++ (5% ≤ ++ <25%) | ++ (5% ≤ ++ <25%) | ++ (5% ≤ ++ <25%) | + (LOQ ≤ + <5%) | ++ (5% ≤ ++ <25%) | ++ (5% ≤ ++ <25%) | +++ (25% ≤ +++ <50%)
10 | COc1ccc2c(c1)[C@@H](N)COC2 (single isomer, unassigned) [Example 122] | < 3 | + (LOQ ≤ + <5%) | ++ (5% ≤ ++ <25%) | +++ (25% ≤ +++ <50%) | +++ (25% ≤ +++ <50%) | ++ (5% ≤ ++ <25%) | + (LOQ ≤ + <5%) | ++ (5% ≤ ++ <25%) | ++ (5% ≤ ++ <25%) | +++ (25% ≤ +++ <50%)
11 | Cc1cc(C)c2c(c1)[C@H](N)COC2 (single isomer, unassigned) [Example 125] | < 3 | + (LOQ ≤ + <5%) | + (LOQ ≤ + <5%) | ++ (5% ≤ ++ <25%) | ++ (5% ≤ ++ <25%) | ++ (5% ≤ ++ <25%) | + (LOQ ≤ + <5%) | ++ (5% ≤ ++ <25%) | ++ (5% ≤ ++ <25%) | ++++ (50% ≤ ++++)
12 | Cc1cc(C)c2c(c1)[C@@H](N)COC2 (single isomer, unassigned) [Example 126] | < 3 | + (LOQ ≤ + <5%) | ++ (5% ≤ ++ <25%) | ++ (5% ≤ ++ <25%) | ++ (5% ≤ ++ <25%) | ++ (5% ≤ ++ <25%) | + (LOQ ≤ + <5%) | +++ (25% ≤ +++ <50%) | + (LOQ ≤ + <5%) | ++++ (50% ≤ ++++)
